In patent US6284789A, “Formation and composition of new optically active compounds” (The Research Foundation of State University of New York, priority 1999, dated 2001):
Read-outs that look alike come from different tables or passages of the source.

Columns and labels:
[1] = test system: 60 human tumor cell line screen; experiment: NCI 60 human tumor cell line screen, in vitro antiproliferative activity (sulforhodamine B assay); assay type: cell-based; conditions: for Percentage of cell lines affected at the given concentration: at the GI50 bound or range given on the same line of Table 3
Procedure: The NCI […] Screening Procedure is described in Monks et al., J. Natl. Cancer Inst., 83: […], as are the origins and processing of the cell lines. In summary, cell suspensions that are diluted according to the particular cell type and the expected target cell density (5000-40,000 cells per well based on cell growth characteristics) are added by pipet (100 μL) into 96-well microtiter plates. Inoculates are allowed a preincubation period of 24 hours at 37° C. for stabilization. Dilutions at twice the intended test concentration were added at time zero in 100 μL aliquots to the microtiter plate wells. Usually, test compounds are evaluated at five 10-fold dilutions. In routine testing, the highest well concentration is 10^-4 M, but for the standard agents the highest well concentration used depends on the agent. Incubations last for 48 hours in 5% CO2 atmosphere and 100% relative humidity. The cells are assayed by using the sulforhodamine B assay. A plate reader is used to read the optical densities, and a microcomputer processes the optical densities into the special concentration parameters.

antitumor activity = conditions: background; cited from earlier work
antiviral activity = conditions: background; cited from earlier work
[2] = test system: nucleoside transport in mammalian cells; conditions: background; cited from earlier work
[3] = background; cited from earlier work
cell division = conditions: background; cited from earlier work
[4] = test system: tubulin / microtubule assembly; conditions: background; cited from earlier work
tolpoisomerase II = conditions: increased single and double strand breaks in DNA, background; cited from earlier work
[5] = test system: leukemias and solid tumors; conditions: background; cited from earlier work
[6] = test system: standard panel of 12 human tumor cell lines; experiment: Hollow fiber assay, preliminary in vivo testing; parameters: species or system human tumor cell lines in mice; conditions: i.p. injection once daily, 4 doses, 2 dose levels
Procedure: Preliminary in vivo testing was conducted by the hollow fiber assay on the oxabicyclooctane and the dioxatricyclodecanes identified as sufficiently active in the large scale in vitro cell screens. Each compound is tested against a standard panel of 12 human tumor cell lines, including NCI-H23, […], MDA-MB-231, MDA-MB-435, SW-620, COLO 205, LOX IMVI, UACC-62, OVCAR-3, OVCAR-5, U251, and SF-295. The cell lines are cultivated in RPMI-1640 containing 10% FBS and 2 mM glutamine. On the day preceding hollow fiber preparation, the cells are given a supplementation of fresh medium to maintain log phase growth. […] On the day of implantation, samples of each tumor cell line is quantitated for viable cell mass by a stable endpoint MTT assay so that the time 0 cell mass is known. Thus, the cytostatic and cytocidal capacities of the test compound can be assessed. […] Each agent is assessed by intraperitoneal injection at 2 dose levels with 3 mice/dose/experiment. […] The optical density of each sample is determined spectropphotomnetrically at 540 nm and the mean of each treatment group is calculated. The percent net cell growth in each treatment group is calculated and compared to the percent net cell growth in the vehicle treated controls. Each compound is assessed in a total of 4 experiments (3 cell lines/experiment×4 experiments=12 cell lines). […]

Q: For COc1cc([C@]23OC[C@H](Cc4cc5c(cc42)OCO5)[C@@H]3CO)cc(OC)c1OC [No. 2], which “Percentage of cell lines with the GI50 range” value ([1]; GI50 ranging from less than 10^-8 to 10^-5 molar) is on record?
A: 26%

Q: And the GI50 ([1]; observed for 26% of cell lines, read-out: GI50 range observed)?
A: 0.01 to 10 µM

Q: Which “Antitumor / biological activity” value (antitumor activity) does the source give for COc1cc([C@H]2c3cc(O)c(OC)cc3C[C@@H]3C(=O)OC[C@H]23)ccc1O [BCON, β-conidendrin] here?
A: biologically inactive

Q: With COc1cc([C@@H]2c3cc4c(cc3[C@H](O)[C@H]3COC(=O)[C@@H]23)OCO4)cc(OC)c1OC (stereo in doubt) [picropodophyllotoxin] as the molecule, how does the “Antitumor / biological activity” value (antitumor activity) read?
A: biologically inactive

Q: Which “Percentage of cell lines affected at the given concentration” value (“Percentage of cell lines affected” for short) [1] does the source give for COc1ccc([C@]23OC[C@H](Cc4cc(OC)c(OC)cc42)[C@@H]3COC(C)=O)cc1OC [No. 6] here?
A: 10%

Q: What does the source list for COc1cc([C@@H]2c3cc4c(cc3[C@H](O)[C@H]3COC(=O)[C@H]23)OCO4)cc(OC)c1OC [PT, podophyllotoxin]?
A: Antiviral activity (antiviral activity): has antiviral and antitumor activity; Inhibition of nucleoside transport [2]: inhibit nucleoside transport in mammalian cells; Toxicity [3]: highly toxic; Arrest of cell division (cell division): arrest of cell division at the mitotic stage of the cell cycle; Inhibition of microtubule assembly [4]: inhibiting the assembly of tubulin into microtubules; Antitumor / biological activity (antitumor activity): has antiviral and antitumor activity

Q: Which “Antitumor / biological activity” value (antitumor activity) does the source give for COc1cc([C@H]2c3cc(O)c(OC)cc3C[C@H]3C(=O)OC[C@H]23)ccc1O [ACON, α-Conidendrin] here?
A: biologically inactive

Q: What does the source list for COc1cc([C@@H]2c3cc4c(cc3[C@@H](O[C@@H]3O[C@@H]5CO[C@@H](c6cccs6)O[C@H]5[C@H](O)[C@H]3O)[C@H]3COC(=O)[C@H]23)OCO4)cc(OC)c1O [teniposide]?
A: Interaction and inhibition of topoisomerase II (tolpoisomerase II): interaction and inhibition of the enzyme tolpoisomerase II; Inhibition of microtubule assembly [4]: not inhibitors of microtubule assembly; Effectiveness in the treatment of leukemias and solid tumors [5]: effective in the treatment of a variety of leukemias and solid tumors

Q: Which “Percentage of cell lines affected” value [1] does the source give for “7-acetoxy-6-methoxytetralin-1-one [compound 87]” here?
A: 93%

Q: For COc1ccc([C@]23OC[C@H](Cc4cc(OC)c(OC)cc42)[C@@H]3CO)cc1OC [No. 5], which GI50 ([1]; 60 human tumor cell lines, 48 h, for the percentage of cell lines given beside it, read-out: GI50 (growth inhibition, 50%), GL50 [sic] in the source) is on record?
A: > 100 µM

Q: What about the “Percentage of cell lines affected” value [1] of the same molecule?
A: 96%

Q: For COc1cc([C@]23OC[C@H](Cc4cc5c(cc42)OCO5)[C@@H]3CO)cc(OC)c1OC [oxabicyclooctane], which “Intraperitoneal score, hollow fiber assay” value ([6]; i.p. fiber implants) is on record?
A: 14

Q: And the “Subcutaneous score, hollow fiber assay” value ([6]; s.c. fiber implants)?
A: 2

Q: With COc1cc([C@@H]2c3cc4c(cc3[C@@H](O[C@@H]3O[C@@H]5CO[C@@H](C)O[C@H]5[C@H](O)[C@H]3O)[C@H]3COC(=O)[C@H]23)OCO4)cc(OC)c1O [etoposide] as the molecule, how does the “Interaction and inhibition of topoisomerase II” value (tolpoisomerase II) read?
A: interaction and inhibition of the enzyme tolpoisomerase II

Q: What about the “Inhibition of microtubule assembly” value [4] of the same molecule?
A: not inhibitors of microtubule assembly

Q: What about the “Effectiveness in the treatment of leukemias and solid tumors” value [5] of the same molecule?
A: effective in the treatment of a variety of leukemias and solid tumors
